Read-outs that look alike come from different tables or passages of the source.
Key:
[1] = chelation of zinc; cited from earlier work
[2] = cited from earlier work
[3] = with PBS at 1:1 mixture of n-decane; cited from earlier work
[4] = cited from earlier work; for blood brain barrier passage: in vivo
Aβ 1-40 aggregates = Aβ 1-40 aggregates (Homo sapiens, UniProt P05067); test: resolubilization of metal- or pH-induced Aβ aggregates on 0.2μ nylon membrane; format: biochemical; details: 2 μM chelator in TBS, relative to TBS alone
Sequence of Aβ 1-40 aggregates (P05067 672-711): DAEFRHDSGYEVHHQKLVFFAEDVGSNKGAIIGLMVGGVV
Method: Aggregates were transferred to a 0.2μ nylon membrane by filtration. The aggregates were then washed (200 μl/well) with TBS alone, TBS containing 2 μM EDTA, or TBS containing 2 μM clioquinol. The membrane was fixed, probed with the anti-Aβ monoclonal antibody 6E10, and developed for exposure to ECL-film. […] Values are expressed as a percentage of Aβ signal after washing with TBS alone.
First, the efficacy of clioquinol's ability to resolubilize Aβ aggregates, formed in vitro by the action of Cu(II) or Zn(II) upon Aβ 1-40, was examined. […] Aβ (10 ng/well in buffered saline) aggregation was induced by addition of ZnCl2 (5 μM) or acidic conditions (pH 5.5). Aggregates were transferred to a 0.2μ nylon membrane by filtration. The aggregates were then washed (200 μl/well) with TBS alone, TBS containing 2 μM EDTA or TBS with 2 μM clioquinol. The membrane was then fixed, probed with anti-Aβ monoclonal antibody 6E10 and developed for exposure to ECL-film.
Values are expressed as a % of Aβ signal remaining on the filter after washing with TBS alone.

[5] = dogs, oral dose of 200 mg/kg; cited from earlier work
[6] = sustained treatment; cited from earlier work
[7] = monkeys, oral dose of 500 mg/kg; cited from earlier work
[8] = test system: Aβ deposits from AD-affected brain; test: extraction of Aβ from post-mortem AD-affected brain tissue, western blot; format: biochemical, human
Source text: To test this hypothesis, the brain tissue preparation of Kuo and colleagues was replicated, but phosphate-buffered saline pH 7.4 (PBS) was substituted as the extraction buffer, achieving similar results. Highly sensitive and specific anti-Aβ monoclonal antibodies (Ida et al., (1996)) were used to assay Aβ extraction by western blot. Next, the extraction of the same material with PBS was repeated in the presence of clioquinol and determined that the presence of clioquinol increased the amount of Aβ in the soluble extract several-fold (FIGS. 1, 2, 3A, and 3B).
Next, the ability of clioquinol to extract Aβ deposits from human brain was determined. […] Fragments of prefrontal cortex from individual post-mortem samples with the histopathological diagnosis of AD were homogenized in PBS, ph 7.4, and then pelleted after centrifugation.
The pellets were then washed with agitation twice for 30 minutes, 4° C., with PBS or PBS containing clioquinol (100% =0.8 μM clioquinol). The suspension was then pelleted (10,000 g for 30 minutes) and the supernatant removed (S1) for western blot analysis using Aβ-specific antibodies.
FIGS. 3A and 3B show the western blot and accompanying densitometric analysis of resolubilization of Aβ from AD-affected brain. […] Synthetic peptide standards that were used to calibrate densitometric quantification are shown in the two right-most lanes. […]

[9] = dissolving clioquinol: n-decane / PBS partitioning; format: physicochemical
Method: In order to obtain a solution of clioquinol in PBS, the following protocol was followed: 5.3 grams of clioquinol was suspended with agitation in 200 milliliter of n-decane. […] Next, the phases were allowed to separate. The lower phase ([…]) was collected and filtered to remove the residue which had formed at the phase interface upon extraction with the organic solvent. […] This number was arrived at based on two assumptions: (1) 2% of the clioquinol was dissolved in the n-decane; and (2) the partitioning coefficient is 1/1750 with PBS at 1:1 mixture of n-decane to […].

[10] = rats, oral dose of 200 mg/kg; cited from earlier work
Aβ1-40 = Aβ1-40 (Homo sapiens, UniProt P05067); test: Zn(II)-induced Aβ1-40 aggregation, supernatant protein by BCA assay; format: biochemical; details: 20 mM HEPES, pH 7.4, 30 minutes at 37° C.
Sequence of Aβ1-40 (P05067 672-711 limits assumed): as the sequence (P05067 672-711) above
Method: Aβ1-40 was incubated with no metal, Zn (II), Zn (II) +clioquinol, DMSO or clioquinol (120 μM) in 20 mM HEPES, […], pH 7.4. Samples were incubated for 30 minutes at 37° C. and then centrifuged at 10,000 g for 20 minutes and the protein content of the supernatant determined using the BCA assay. Clioquinol was dissolved in DMSO prior to adding 20 μM to the samples. […] DMSO had no effect on Aβ aggregation. Results are mean ±SD, n=3.

[11] = cited from earlier work; remark: listed apart in the source
[12] = rats and mice, within one hour of ingestion; cited from earlier work

SMILES: Oc1c(I)cc(Cl)c2cccnc12 [clioquinol, 5-chloro-7-iodo-8-hydroxyquinoline]
- K(Zn) [1]: 12.5
- excretion half life ([2]; in vivo): 1 to 3 h
- time to reach peak plasma levels ([2]; oral ingestion): ≤ 30 min
- partitioning coefficient [3]: 1/1750
- removal of a bolus dose from the brain ([4]; bolus dose): almost completely removed from the brain within three hours
- blood brain barrier passage [4]: freely permeable into the brain
- blood brain barrier passage ([4]; listed as Clioquinol): crosses the blood brain barrier
- resolubilized Cu(II)-induced Aβ precipitate (Aβ 1-40 aggregates): 85%
- resolubilized Zn(II)-induced Aβ precipitate (Aβ 1-40 aggregates): 50%
- resolubilized pH 5.5-induced Aβ precipitate (Aβ 1-40 aggregates): 10%
- plasma levels [5]: 10 to 30 µM
- dose causing subacute myelo-optic neuritis [6]: 10 mg/kg/day
- plasma levels [7]: 20 to 70 µM
- increase in solubilization of Aβ relative to PBS alone ([8]; 1.12 μM clioquinol, sequential extraction): 2.5 fold
- proportion of Aβ re-dissolved from post-mortem AD affected brain tissue ([8]; compared to buffer in the absence of chelators): up to 70%
- fraction of clioquinol dissolved in n-decane ([9]; 5.3 grams suspended in 200 milliliter n-decane): 2%
- concentration of clioquinol in the PBS ([9]; PBS pH 7.4 after 1:1 extraction of n-decane supernatant): 800 nanamolar
- plasma levels [10]: 5 µM
- effect on Zn-induced Aβ1-40 aggregation (Aβ1-40): attenuated Zn-induced Aβ1-40 aggregation
- general toxicity profile ([11]; in vivo): low general toxicity profile
- safety in mammalian species ([11]; many mammalian species, including rat and mouse): appears to be safe
- blood levels [12]: 1 to 10 µM

Reference: US20020025944A1, “Use of clioquinol for the therapy of Alzheimer's disease” (priority 2000, published 2002)
